Reference: patent publication US10562861B2, “Carboxylic acid compounds” (Sumitomo Dainippon Pharma Co., Ltd., priority 2012, dated 2020)

Legend:
Renca mouse tumour cells = experiment: Tumour growth studies in Renca, a murine syngeneic renal carcinoma tumour model; format: in vivo; details: Balb/C mice, Renca s.c., vs 0.5% methylcellulose
Experimental: Experiments were conducted on female mice (Balb/C genotype, at least 5 weeks old). Renca mouse tumour cells (Cancer Chemother Pharmacol. 1995; 36 (1): 7-12) were kindly provided by Dr. T. Fujioka at Department of Urology, Iwate Medical University School of Medicine. Renca mouse tumour cells (5×10^4) were implanted subcutaneously in the flank of mice on day 0. Mice were treated with either drug vehicle (0.5% methylcellulose), the compound of Example 3 (0.3 mg/kg once a week) or the compound of Example 4 (3 mg/kg once a week) administered orally (p. o.) on days 1, 8, and 15. Tumour volumes were assessed at least twice weekly by bilateral vernier caliper measurements.
Tumour growth inhibition from the start of treatment was assessed by comparison of the differences in tumour growth rate between control and the compound of Example 3 treated groups, as shown in FIG. 9.
Tumour growth inhibition from the start of treatment was assessed by comparison of the differences in tumour growth rate between control and the compound of the Example 4 treated groups, as shown in FIG. 10.

CT26 mouse tumour cells = experiment: Survival studies in CT26, a murine syngeneic colon carcinoma tumour model; format: in vivo; details: Balb/C mice, CT26 s.c., vs control or RT
Experimental: Experiments were conducted on female mice (Balb/C genotype, at least 5 weeks old). CT26 mouse tumour cells (CRL-2638) were purchased from ATCC. CT26 mouse tumour cells (1×10^6) were implanted subcutaneously in the flank of mice on day 0. Mice in radiotherapy alone (RT) group and combination group were anesthetized and received radiation therapy (2 Gy) at days 7, 8, 9, 10, and 11. Mice in combination group were also treated with a compound of Example 3 (30 mg/kg once a week) administered orally (p.o.) or Example 4 (5 mg/kg once a week) administered intravenously (i. v.) on days 7, 14, 22, and 27. Tumour volumes were assessed at least twice weekly by bilateral vernier caliper measurements. Survival period was determined by the time taken for tumours to reach 4 times the volume at the time of treatment.

CCC[C@@H](CCO)Nc1nc(N)nc(C)c1Cc1ccc(CN(CC(=O)O)CC(F)F)cc1OC [Example 3, (S)-2-((4-((2-amino-4-(1-hydroxyhexan-3-ylamino)-6-methylpyrimidin-5-yl)methyl)-3-methoxybenzyl)(2,2-difluoroethyl)amino)acetic acid]
Tumour growth inhibition (Renca mouse tumour cells; 0.3 mg/kg once a week p.o. on days 1, 8, 15, FIG. 9): inhibited tumour growth | Survival period (time for tumours to reach 4 times the volume at treatment) (CT26 mouse tumour cells; RT 2 Gy days 7-11 plus 30 mg/kg once a week p.o., FIG. 12): survived significantly longer

CCC[C@@H](CCO)Nc1nc(N)nc(C)c1Cc1ccc(CN(CC(=O)O)CC(F)(F)F)cc1OC [Example 4, (S)-2-((4-((2-amino-4-(1-hydroxyhexan-3-ylamino)-6-methylpyrimidin-5-yl)methyl)-3-methoxybenzyl)(2,2,2-trifluoroethyl)amino)acetic acid]
Tumour growth inhibition (Renca mouse tumour cells; 3 mg/kg once a week p.o. on days 1, 8, 15, FIG. 10): inhibited tumour growth | Survival period (time for tumours to reach 4 times the volume at treatment) (CT26 mouse tumour cells; RT 2 Gy days 7-11 plus 5 mg/kg once a week i.v., FIG. 13): survived significantly longer
